Reference: PubChem BioAssay AID1963979 (Molecular Pharmacology Branch, DTP, NCI, 2024)

Tested on: 361931-004-R-J1-PDC multicell spheroid viability
Assay: Anticancer human tumor 361931-004-R-J1-PDC patient-derived colon adenocarcinoma cell line growth inhibition [PI3K]
Settings: for IC50: curve of first compound; for viability, T/C: stronger effect = lower value; active means viability on the fitted dose curve at most 10% of control; inactive means the rest
How it was run: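 Agents were dosed from a top concentration near clinical Cmax (otherwise 10 microM) in half-log decrements, alone or combined with PI3K inhibitors. The spheroids contain tumor cells plus endothelial (HUVEC) and MSC stroma; viability is measured.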

[1] = second compound 0.0316 µM, first compound 0.0316 µM
[2] = second compound 0.0316 µM, first compound 0.1 µM
[3] = second compound 0.0316 µM, first compound 0.316 µM
[4] = second compound 0.0316 µM, first compound 1 µM
[5] = second compound 0.0316 µM, first compound 3.16 µM
[6] = second compound 0.0316 µM, first compound 10 µM
[7] = second compound 0.1 µM, first compound 0.0316 µM
[8] = second compound 0.1 µM, first compound 0.1 µM
[9] = second compound 0.1 µM, first compound 0.316 µM
[10] = second compound 0.1 µM, first compound 1 µM
[11] = second compound 0.1 µM, first compound 3.16 µM
[12] = second compound 0.1 µM, first compound 10 µM
[13] = second compound 0.316 µM, first compound 0.0316 µM
[14] = second compound 0.316 µM, first compound 0.1 µM
[15] = second compound 0.316 µM, first compound 0.316 µM
[16] = second compound 0.316 µM, first compound 1 µM
[17] = second compound 0.316 µM, first compound 3.16 µM
[18] = second compound 0.316 µM, first compound 10 µM
[19] = second compound 1 µM, first compound 0.0316 µM
[20] = second compound 1 µM, first compound 0.1 µM
[21] = second compound 1 µM, first compound 0.316 µM
[22] = second compound 1 µM, first compound 1 µM
[23] = second compound 1 µM, first compound 3.16 µM
[24] = second compound 1 µM, first compound 10 µM
[25] = second compound 3.16 µM, first compound 0.0316 µM
[26] = second compound 3.16 µM, first compound 0.1 µM
[27] = second compound 3.16 µM, first compound 0.316 µM
[28] = second compound 3.16 µM, first compound 1 µM
[29] = second compound 3.16 µM, first compound 3.16 µM
[30] = second compound 3.16 µM, first compound 10 µM
[31] = second compound 10 µM, first compound 0.0316 µM
[32] = second compound 10 µM, first compound 0.1 µM
[33] = second compound 10 µM, first compound 0.316 µM
[34] = second compound 10 µM, first compound 1 µM
[35] = second compound 10 µM, first compound 3.16 µM
[36] = second compound 10 µM, first compound 10 µM
[37] = second compound 0.0316 µM, first compound 0.00316 µM
[38] = second compound 0.0316 µM, first compound 0.01 µM
[39] = second compound 0.1 µM, first compound 0.00316 µM
[40] = second compound 0.1 µM, first compound 0.01 µM
[41] = second compound 0.316 µM, first compound 0.00316 µM
[42] = second compound 0.316 µM, first compound 0.01 µM
[43] = second compound 1 µM, first compound 0.00316 µM
[44] = second compound 1 µM, first compound 0.01 µM
[45] = second compound 3.16 µM, first compound 0.00316 µM
[46] = second compound 3.16 µM, first compound 0.01 µM
[47] = second compound 10 µM, first compound 0.00316 µM
[48] = second compound 10 µM, first compound 0.01 µM
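Further: spheroids exposed to agents for seven days before readout.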

CC(C)NCC(C(=O)N1CCN(c2ncnc3c2C(C)CC3O)CC1)c1ccc(Cl)cc1 (stereo not given) + Cc1nc(NC(=O)N2CCCC2C(N)=O)sc1-c1ccnc(C(C)(C)C(F)(F)F)c1
631 nM: IC50 (second compound 10 µM)
inactive: viability, T/C [1] 96.2% | viability, T/C [2] 102% | viability, T/C [3] 85.4% | viability, T/C [4] 56.2% | viability, T/C [5] 34.5% | viability, T/C [6] 27% | viability, T/C [7] 97% | viability, T/C [8] 87.4% | viability, T/C [9] 94.3% | viability, T/C [10] 60.2% | viability, T/C [11] 30.7% | viability, T/C [12] 17.6% | viability, T/C [13] 96.8% | viability, T/C [14] 93.9% | viability, T/C [15] 68.5% | viability, T/C [16] 51.5% | viability, T/C [17] 34.2% | viability, T/C [18] 18.1% | viability, T/C [19] 87.9% | viability, T/C [20] 96.7% | viability, T/C [21] 76.8% | viability, T/C [22] 50.6% | viability, T/C [23] 29.6% | viability, T/C [24] 16.7% | viability, T/C [25] 72.3% | viability, T/C [26] 84% | viability, T/C [27] 73.9% | viability, T/C [28] 46.6% | viability, T/C [29] 29.7% | viability, T/C [30] 13.4% | viability, T/C [31] 62.1% | viability, T/C [32] 56.8% | viability, T/C [33] 63.4% | viability, T/C [34] 42.4% | viability, T/C [35] 21.6% | viability, T/C [36] 11.9%
1020 nM: IC50 (second compound 3.16 µM)
1520 nM: IC50 (second compound 0.1 µM)
1080 nM: IC50 (second compound 1 µM)
1380 nM: IC50 (second compound 0.0316 µM)
1090 nM: IC50 (second compound 0.316 µM)

CCN1CCN(Cc2ccc(Nc3ncc(F)c(-c4cc(F)c5nc(C)n(C(C)C)c5c4)n3)nc2)CC1 + Cc1nc(NC(=O)N2CCCC2C(N)=O)sc1-c1ccnc(C(C)(C)C(F)(F)F)c1
111 nM: IC50 (second compound 3.16 µM)
605 nM: IC50 (second compound 1 µM)
inactive: viability, T/C [37] 91.8% | viability, T/C [38] 99.3% | viability, T/C [1] 99.5% | viability, T/C [2] 93.8% | viability, T/C [3] 79.7% | viability, T/C [4] 82.1% | viability, T/C [39] 99.6% | viability, T/C [40] 97.2% | viability, T/C [7] 96.6% | viability, T/C [8] 82.6% | viability, T/C [9] 81.7% | viability, T/C [10] 57.4% | viability, T/C [41] 97.9% | viability, T/C [42] 90.2% | viability, T/C [13] 83.8% | viability, T/C [14] 72.6% | viability, T/C [15] 69.5% | viability, T/C [16] 56.4% | viability, T/C [43] 95.2% | viability, T/C [44] 87.7% | viability, T/C [19] 75.2% | viability, T/C [20] 74.3% | viability, T/C [21] 65.2% | viability, T/C [22] 39.7% | viability, T/C [45] 75.4% | viability, T/C [46] 67.2% | viability, T/C [25] 54.9% | viability, T/C [26] 51.9% | viability, T/C [27] 46% | viability, T/C [28] 37.3% | viability, T/C [47] 65.9% | viability, T/C [48] 59% | viability, T/C [31] 40.6% | viability, T/C [32] 40.5% | viability, T/C [33] 32.2% | viability, T/C [34] 30.5%
> 1000 nM: IC50 (second compound 0.0316 µM) | IC50 (second compound 0.1 µM) | IC50 (second compound 0.316 µM)
18.9 nM: IC50 (second compound 10 µM)

Cn1ncc(Cl)c1-c1cc(C(=O)NC(CN)Cc2cccc(F)c2)sc1Cl (stereo not given) + Cc1nc(NC(=O)N2CCCC2C(N)=O)sc1-c1ccnc(C(C)(C)C(F)(F)F)c1
793 nM: IC50 (second compound 0.316 µM)
active: viability, T/C [36] 7.91%
inactive: viability, T/C [1] 98.5% | viability, T/C [2] 95% | viability, T/C [3] 83.4% | viability, T/C [4] 53.4% | viability, T/C [5] 34.3% | viability, T/C [6] 19.7% | viability, T/C [7] 96.3% | viability, T/C [8] 95.3% | viability, T/C [9] 71.8% | viability, T/C [10] 48.8% | viability, T/C [11] 29.8% | viability, T/C [12] 20.5% | viability, T/C [13] 100% | viability, T/C [14] 87.5% | viability, T/C [15] 77.2% | viability, T/C [16] 40% | viability, T/C [17] 28% | viability, T/C [18] 14.5% | viability, T/C [19] 89.8% | viability, T/C [20] 93.7% | viability, T/C [21] 72.3% | viability, T/C [22] 39.1% | viability, T/C [23] 28.8% | viability, T/C [24] 16% | viability, T/C [25] 77.4% | viability, T/C [26] 87.1% | viability, T/C [27] 67.8% | viability, T/C [28] 35.1% | viability, T/C [29] 29.2% | viability, T/C [30] 11.6% | viability, T/C [31] 77.2% | viability, T/C [32] 69.1% | viability, T/C [33] 54.9% | viability, T/C [34] 34.2% | viability, T/C [35] 20.6%
715 nM: IC50 (second compound 1 µM)
411 nM: IC50 (second compound 10 µM)
628 nM: IC50 (second compound 3.16 µM)
1320 nM: IC50 (second compound 0.0316 µM)
922 nM: IC50 (second compound 0.1 µM)

Cn1nccc1Nc1nccc(-c2ccn(C(CO)c3ccc(Cl)c(F)c3)c(=O)c2)n1 (stereo not given) + Cc1nc(NC(=O)N2CCCC2C(N)=O)sc1-c1ccnc(C(C)(C)C(F)(F)F)c1
1190 nM: IC50 (second compound 3.16 µM)
3140 nM: IC50 (second compound 1 µM)
active: viability, T/C [30] 10.4% | viability, T/C [35] 4.98% | viability, T/C [36] 2.3%
9920 nM: IC50 (second compound 0.0316 µM)
6310 nM: IC50 (second compound 0.316 µM)
7970 nM: IC50 (second compound 0.1 µM)
213 nM: IC50 (second compound 10 µM)
inactive: viability, T/C [1] 106% | viability, T/C [2] 101% | viability, T/C [3] 90.4% | viability, T/C [4] 94.5% | viability, T/C [5] 85.9% | viability, T/C [6] 49.2% | viability, T/C [7] 108% | viability, T/C [8] 109% | viability, T/C [9] 101% | viability, T/C [10] 89.4% | viability, T/C [11] 78.8% | viability, T/C [12] 42.9% | viability, T/C [13] 112% | viability, T/C [14] 110% | viability, T/C [15] 95.5% | viability, T/C [16] 86.8% | viability, T/C [17] 69.8% | viability, T/C [18] 37.3% | viability, T/C [19] 99.5% | viability, T/C [20] 99.6% | viability, T/C [21] 94% | viability, T/C [22] 83.2% | viability, T/C [23] 49.4% | viability, T/C [24] 26.9% | viability, T/C [25] 91.4% | viability, T/C [26] 87.2% | viability, T/C [27] 75.9% | viability, T/C [28] 56.6% | viability, T/C [29] 24% | viability, T/C [31] 80% | viability, T/C [32] 63.5% | viability, T/C [33] 43.6% | viability, T/C [34] 19%

Cn1ncnc1[C@H]1c2n[nH]c(=O)c3cc(F)cc(c23)N[C@@H]1c1ccc(F)cc1 + Cc1nc(NC(=O)N2CCCC2C(N)=O)sc1-c1ccnc(C(C)(C)C(F)(F)F)c1
48.4 nM: IC50 (second compound 10 µM)
inactive: viability, T/C (second compound 0.0316 µM, first compound 0.000316 µM) 98% | viability, T/C (second compound 0.0316 µM, first compound 0.001 µM) 93.1% | viability, T/C [37] 97.3% | viability, T/C [38] 93% | viability, T/C [1] 79.8% | viability, T/C [2] 85.3% | viability, T/C (second compound 0.1 µM, first compound 0.000316 µM) 109% | viability, T/C (second compound 0.1 µM, first compound 0.001 µM) 93.6% | viability, T/C [39] 94.5% | viability, T/C [40] 93.2% | viability, T/C [7] 86.5% | viability, T/C [8] 76.8% | viability, T/C (second compound 0.316 µM, first compound 0.000316 µM) 98.2% | viability, T/C (second compound 0.316 µM, first compound 0.001 µM) 86.1% | viability, T/C [41] 81.7% | viability, T/C [42] 81.8% | viability, T/C [13] 83.5% | viability, T/C [14] 80.8% | viability, T/C (second compound 1 µM, first compound 0.000316 µM) 87.3% | viability, T/C (second compound 1 µM, first compound 0.001 µM) 73.4% | viability, T/C [43] 84.5% | viability, T/C [44] 79.4% | viability, T/C [19] 90.1% | viability, T/C [20] 70.3% | viability, T/C (second compound 3.16 µM, first compound 0.000316 µM) 70.4% | viability, T/C (second compound 3.16 µM, first compound 0.001 µM) 81.8% | viability, T/C [45] 77.4% | viability, T/C [46] 66.9% | viability, T/C [25] 72.6% | viability, T/C [26] 62.2% | viability, T/C (second compound 10 µM, first compound 0.000316 µM) 62.2% | viability, T/C (second compound 10 µM, first compound 0.001 µM) 54.5% | viability, T/C [47] 54% | viability, T/C [48] 56.6% | viability, T/C [31] 47.9% | viability, T/C [32] 49.2%
> 100 nM: IC50 (second compound 0.0316 µM) | IC50 (second compound 0.1 µM) | IC50 (second compound 0.316 µM) | IC50 (second compound 1 µM) | IC50 (second compound 3.16 µM)
